Values after ≈ are worked out from the molar mass of the structure shown.
System: K562 human leukemia-derived cell lines
Experiment: K562 human leukemia cell-proliferation inhibition test
Assay type: cell-based
Settings: Homo sapiens, K562, 72 h
Procedure: K562 Human Leukemia Cell-Proliferation Inhibition Test
A cell proliferation inhibition test using K562 cells was performed. The activity in the presence of a test substance was compared to the activity in the presence of green tea polyphenol (GTP). The materials used in the test are as follows.
Cells: K562 human leukemia-derived cell lines (DS Pharma Biomedical Co., Ltd.)
Control Substance: Green Tea Polyphenols, abbreviation: GTP (LKT Laboratories, Inc.)
Culture solution: 10% equine serum-supplemented RPMI1640 medium
A test substance and a control substance were used by dissolving each of them in DMSO. To a solution (0.99 mL) containing K562 cells in a cell concentration of 20,000 cells/mL, a test substance solution or a control substance solution (0.01 mL) was added and the cells were cultured. Seventy two hours later, a part of the cells was stained with trypan blue and viable cells were counted by a counting chamber.
In Table 2, “IC50” denotes the sample concentration inhibiting 50% of cell proliferation

Row | Molecule | IC50 [µg/mL]
1 | O=C(Nc1ccc(S(F)(F)(F)(F)F)cc1)c1ccccc1 [Compound 1, 4-benzoylaminopentafluorosulfanylbenzene] | 1.5 (≈ 4.64 µM)
2 | O=C(/C=C/c1ccc2c(c1)OCO2)Nc1ccc(S(F)(F)(F)(F)F)cc1 [Compound 19, 4-(3,4-methylenedioxycinnamoylamino)pentafluorosulfanylbenzene] | 0.66 (≈ 1.68 µM)
3 | C=CC(=O)Nc1ccc(S(F)(F)(F)(F)F)cc1 [Compound 31, 4-acryloylaminopentafluorosulfanylbenzene] | 0.88 (≈ 3.22 µM)
4 | C=CC(=O)Nc1cccc(S(F)(F)(F)(F)F)c1 [Compound 32, 3-acryloylaminopentafluorosulfanylbenzene] | 4.6 (≈ 16.8 µM)

Same assay, conditions: Homo sapiens, K562, 72 h, K562 cells, 72 hours, viable cells counted with trypan blue; read-out: IC50

Row | Molecule | IC50 [µg/mL]
5 | O=C(Oc1cccc(S(F)(F)(F)(F)F)c1)c1cc(O)c(O)c(O)c1 [Compound 8, 3-(3,4,5-trihydroxybenzoyloxy)pentafluorosulfanylbenzene] | 8.5 (≈ 22.8 µM)
6 | COc1cc(/C=C/C(=O)Nc2ccc(S(F)(F)(F)(F)F)cc2)ccc1O [Compound 21, 4-(4-hydroxy-3-methoxycinnamoylamino)pentafluorosulfanylbenzene] | 0.93 (≈ 2.35 µM)
7 | O=C(Nc1ccc(S(F)(F)(F)(F)F)cc1)c1c(O)cc(O)cc1O [Compound 23, 4-(2,4,6-trihydroxybenzoylamino)pentafluorosulfanylbenzene] | 4.1 (≈ 11 µM)
8 | O=C(/C=C/c1cc(O)c(O)c(O)c1)Nc1ccc(S(F)(F)(F)(F)F)cc1 [Compound 24, 4-(3,4,5-trihydroxycinnamoylamino)pentafluorosulfanylbenzene] | 14 (≈ 35.2 µM)
9 | CC(=O)Oc1cc(/C=C/C(=O)Nc2ccc(S(F)(F)(F)(F)F)cc2)cc(OC(C)=O)c1OC(C)=O [Compound 25, 4-(3,4,5-triacetoxycinnamoylamino)pentafluorosulfanylbenzene] | 6.3 (≈ 12 µM)
10 | C=CCOc1ccc(C(=O)Nc2ccc(S(F)(F)(F)(F)F)cc2)cc1OC [Compound 28, 4-(4-(2-propenyloxy)-3-methoxybenzoylamino)pentafluorosulfanylbenzene] | 0.8 (≈ 1.95 µM)
11 | C=CCc1cc(C(=O)Nc2ccc(S(F)(F)(F)(F)F)cc2)cc(OC)c1O [Compound 30, 4-(4-hydroxy-5-(2-propenyl)-3-methoxybenzoylamino)pentafluorosulfanylbenzene] | 0.9 (≈ 2.2 µM)
12 | O=C(Nc1ccc(S(F)(F)(F)(F)F)cc1)c1ccc(CO)o1 [Compound 33, 4-(5-hydroxymethylfuran-2-yl)carbonylaminopentafluorosulfanylbenzene] | 2.7 (≈ 7.87 µM)
13 | COc1cc(/C=C/C(=O)Nc2ccc(S(F)(F)(F)(F)F)cc2)ccc1OCC=C(C)C [Compound 37, 4-(4-(3-methyl-2-butenyloxy)-3-methoxycinnamoylamino)pentafluorosulfanylbenzene] | 4.8 (≈ 10.4 µM)
14 | C=CCOc1ccc(/C=C/C(=O)Nc2ccc(S(F)(F)(F)(F)F)cc2)cc1OC [Compound 38, 4-(4-(2-propenyloxy)-3-methoxycinnamoylamino)pentafluorosulfanylbenzene] | 0.6 (≈ 1.38 µM)
15 | COc1ccc(/C=C/C(=O)Nc2ccc(S(F)(F)(F)(F)F)cc2)cc1OCC=C(C)C [Compound 41, 4-(3-(3-methyl-2-butenyloxy)-4-methoxycinnamoylamino)pentafluorosulfanylbenzene] | 0.81 (≈ 1.75 µM)
16 | C/C=C/COc1ccc(/C=C/C(=O)Nc2ccc(S(F)(F)(F)(F)F)cc2)cc1OC [Compound 42, 4-(4-(2-butenyloxy)-3-methoxycinnamoylamino)pentafluorosulfanylbenzene] | 1.7 (≈ 3.78 µM)
17 | COc1cc(/C=C/C(=O)Nc2ccc(S(F)(F)(F)(F)F)cc2)cc(OC)c1OCC=C(C)C [Compound 43, 4-(4-(3-methyl-2-butenyloxy)-3,5-dimethoxycinnamoylamino)pentafluorosulfanylbenzene] | 2.8 (≈ 5.67 µM)
18 | C=CC(C)Oc1ccc(/C=C/C(=O)Nc2ccc(S(F)(F)(F)(F)F)cc2)cc1OC (stereo not shown) [Compound 44, 4-(4-(1-methyl-2-propenyloxy)-3-methoxycinnamoylamino)pentafluorosulfanylbenzene] | 1 (≈ 2.22 µM)

Same assay, conditions: K562 cells, 72 hours, viable cells counted with trypan blue

Row | Molecule | IC50 [µg/mL]
19 | 4-(3,5-dihydroxybenzoylamino)pentafluorosulfanylbenzene [Compound 50] | 3.5
